From patent publication US20080089845A1, “METHODS FOR DETERMINING EFFECTIVE DOSES OF FATTY ACID AMIDE HYDROLASE INHIBITORS IN VIVO” (N.V. Organon, priority 2006, published 2008)

Columns and labels:
[1] = tested on: OEA plasma levels; test: Plasma/serum OEA and PEA levels by LC-MS/MS after oral administration in rats; format: in vivo; conditions: rat, 30 mg/kg p.o. vs 10 mg/kg p.o.
Method: At 0, 1, 2, 4, 8, 12, and 24 hours post-administration, animals were sacrificed to collect serum and brain tissue samples. For each time point, FAAH activity was determined in brain tissue homogenates by essentially the same method as that described in Fegley et al. (2005), J. Pharm. and Exp. Ther., 313:352-358. We observed complete FAAH inhibition at 10 mg/kg and partial FAAH inhibition at 1 mg/kg (FIG. 1).
Serum OEA and PEA levels were determined by LC-MS/MS. As shown in FIGS. 2 (A-B), plasma levels of both OEA and PEA were highly correlated with FAAH inhibition in the brain (R^2=0.9459 and 0.929, respectively). In addition, changes in OEA plasma levels correlated with changes in anandamide (AEA) levels in the brain (FIG. 3; R^2=0.9363), and changes in AEA brain levels correlated with brain FAAH inhibition (FIG. 4; R^2=0.9996). […] AUCs were determined as the sum of the area under the plasma concentration curve of the analyte measured (minus the endogenous level), or as a % FAAH inhibition versus time curve from time zero to the last time point collected by the trapezoidal rule.

[2] = tested on: OEA and PEA levels in plasma; test: 28-day toxicokinetic (TK) study in rodents, plasma OEA and PEA levels; format: in vivo, rat; conditions: rodent TK study, 50, 275 and 1500 mg/kg
Description: We carried out toxicokinetic (TK) studies in rodents. […] AEA was included in this assay to examine whether basal or elevated levels of AEA could be detected.

[3] = molecular target: T1, FAAH (Mus musculus, UniProt O08914); test: Escalating oral dose study in mice, brain FAAH activity; format: in vivo
T1 construct: brain FAAH Activity was also evaluated in an escalating oral dose study in mice; from tissue; host or cells: mouse brain
T1 sequence (O08914 1-579): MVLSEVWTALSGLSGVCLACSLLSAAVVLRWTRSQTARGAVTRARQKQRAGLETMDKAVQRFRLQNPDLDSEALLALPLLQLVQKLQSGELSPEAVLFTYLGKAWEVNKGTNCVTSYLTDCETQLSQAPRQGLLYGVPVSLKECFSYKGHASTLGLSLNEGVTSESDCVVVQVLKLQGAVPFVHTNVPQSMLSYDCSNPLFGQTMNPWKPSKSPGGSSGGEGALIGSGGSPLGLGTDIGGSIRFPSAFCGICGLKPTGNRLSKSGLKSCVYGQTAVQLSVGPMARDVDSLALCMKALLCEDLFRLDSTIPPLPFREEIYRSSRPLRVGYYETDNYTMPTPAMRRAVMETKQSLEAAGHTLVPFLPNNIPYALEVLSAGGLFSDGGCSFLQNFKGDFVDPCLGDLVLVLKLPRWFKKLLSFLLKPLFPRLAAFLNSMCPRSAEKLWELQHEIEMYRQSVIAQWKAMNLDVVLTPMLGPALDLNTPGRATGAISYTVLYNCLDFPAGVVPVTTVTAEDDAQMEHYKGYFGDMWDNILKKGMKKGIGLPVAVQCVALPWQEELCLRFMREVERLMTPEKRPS
Method: Finally, the correlation between increases in plasma OEA levels and brain FAAH Activity was also evaluated in an escalating oral dose study in mice. Inhibition of FAAH activity was maximal at 50 mg/kg p.o. and partial 10 mg/kg p.o. (FIG. 12). Increases in plasma OEA levels directly correlated with brain FAAH inhibition (FIG. 13).

[4] = tested on: plasma OEA levels; test: Time course of plasma OEA levels after oral administration to cynomolgus monkeys; format: in vivo
Method: Afterwards, a time course of plasma OEA levels was determined for each subject by obtaining a plasma sample at 0.5, 1, 2, 4, 8, 12, and 24 hours post-administration.

## NC(=O)c1cccc(-c2cccc(OC(=O)NC3CCCCC3)c2)c1 [KDS-4103]
[1]
  plasma levels of OEA at 30 mg/kg compared with 10 mg/kg: did not increase plasma levels of OEA above those observed at 10 mg/kg
[2]
  FAAH inhibition inferred from OEA and PEA increases: complete across all doses
  Increases in OEA and PEA levels across the dose range: similar
[3]; 10 mg/kg p.o.
  Inhibition of FAAH activity in brain: partial
[3]; 50 mg/kg p.o.
  Inhibition of FAAH activity in brain: maximal
[4]; 50-1500 mg/kg
  inhibition of FAAH activity in primates, concluded from plasma OEA: highly effective
[4]; each dose of 50-1500 mg/kg
  time of peak plasma OEA levels: four
[4]; each dose of 50-1500 mg/kg, up to 24 hours
  plasma OEA levels after the peak: remained elevated at all subsequent time points examined
